In data set [1] the target is T1, human CB2R (Homo sapiens, UniProt P34972).
T1 construct: The coding region of human CB2R cDNA; expressed in transfected cells
Kind of data set: CB2R-mediated suppression of forskolin-stimulated cAMP synthesis (agonistic activity), CHO cells expressing human CB2R. It is filed as cell-based. The procedure:
After the incubation, 4 μM forskolin (Sigma) was added and the cells were incubated for 20 min at 37° C. The reaction was stopped by the addition of 1N HCl and the amount of cAMP in the cell supernatant was measured using an EIA kit (Amersham Pharmacia Biotech) according to the manufacture's protocol.

Data set [2] concerns the target T1, human CB2R. In words: Human CB2 receptor (CB2R) binding inhibition, [3H]CP55940, membranes of CB2R-expressing CHO cells. The protocol: The prepared vector was transfected into Chinese Hamster Ovary (CHO) cells with LipofectAMINE reagent (Gibco BRL) according to the manufacture's protocol, and the stable CB2R-expressing clones were selected.
(§1) The crude membrane fractions were then prepared from the CB2R-expressing CHO cells. Receptor binding assay was performed by incubating the membranes with each test compound and [^3H]CP55940 (at a final concentration of 0.5 nM: NEN Life Science Products) in the assay buffer (50 mM Tris-HCl, 1 mM EDTA, 3 mM MgCl2, pH 7.4) containing 0.5% bovine serum albumin (BSA) for 2 hr at 25° C. The incubation mixture was filtered through 1% polyethylenimine (PEI)-treated GF/C glass filter and washed with 50 mM Tris-HCl (pH 7.4) containing 0.1% BSA. The radioactivity was then counted with a liquid scintillation counter.
(§2) For the receptor binding assay of human CB1 receptor (CB1R), the stable CB1R-expressing CHO cells were prepared as described above, and the binding assay was performed with their membrane fractions. As a consequence of these studies, the Ki values of each test compound for both cannabinoid receptors were determined, which were presented in Table 89.

Data set [3] addresses T2, human CB1 receptor (CB1R) (Homo sapiens, UniProt P21554).
T2 construct: expressed in transfected cells
Kind of data set: Receptor binding assay of human CB1 receptor (CB1R), membranes of CB1R-expressing CHO cells. The protocol:
as §1, §2

Data set [4] has as its system SRBC-induced DTH reaction. Kind of data set: Sheep red blood cell (SRBC)-induced delayed type hypersensitive (DTH) reaction, foot pad swelling. It is filed as in vivo. To be noted: female ddY mice, measured after 24 hrs. The protocol:
Female ddY mice (7 weeks old) were used for the sheep red blood cell (SRBC)-induced delayed type hypersensitive (DTH) reaction.
Cannabinoid receptor agonist, I-6, I-60, I-77 and I-118 were suspended in 0.6% arabic gum solution. Mice were sensitized by the intradermal injection of 10^7 cells of SRBC (40 μl/foot) into the left hind foot pad. After 5 days, DTH reaction was induced by the intradermal injection of 10^8 cells of SRBC in the right hind foot pad. Test compounds were administerd p.o. (10 ml/kg) 1 hr before and 5 hr after the induction of DTH reaction. After 24 hrs of the injection of SRBC, the left and right foot pad volumes were measured by the water displacement method. The foot pad swelling was calculated as the differences in the volumes between the right and left hind foot pad, and used as an index of the DTH reaction.
Data are expressed as the inhibition percentage of each compound. Statistical analysis was performed with Welch's t-test, in which the value of P<0.05 is considered as a significant difference.

[5] abbreviates: dose 30 mg/kg p.o. 1 hr before and 5 hr after induction.

The structures appear in SMILES notation. Where two headings read alike, the source gives them in different places. Some results are limits rather than exact numbers.

T1 sequence (P34972 whole entry): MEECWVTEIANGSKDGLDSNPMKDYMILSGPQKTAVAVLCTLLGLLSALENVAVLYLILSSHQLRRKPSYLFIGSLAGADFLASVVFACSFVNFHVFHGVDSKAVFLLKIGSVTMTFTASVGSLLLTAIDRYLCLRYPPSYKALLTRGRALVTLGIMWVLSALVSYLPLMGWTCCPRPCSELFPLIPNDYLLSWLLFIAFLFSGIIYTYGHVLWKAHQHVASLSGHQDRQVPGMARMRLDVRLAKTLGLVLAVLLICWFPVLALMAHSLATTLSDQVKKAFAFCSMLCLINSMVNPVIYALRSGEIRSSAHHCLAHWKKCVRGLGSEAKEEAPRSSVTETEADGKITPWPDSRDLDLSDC
T2 sequence (P21554 whole entry): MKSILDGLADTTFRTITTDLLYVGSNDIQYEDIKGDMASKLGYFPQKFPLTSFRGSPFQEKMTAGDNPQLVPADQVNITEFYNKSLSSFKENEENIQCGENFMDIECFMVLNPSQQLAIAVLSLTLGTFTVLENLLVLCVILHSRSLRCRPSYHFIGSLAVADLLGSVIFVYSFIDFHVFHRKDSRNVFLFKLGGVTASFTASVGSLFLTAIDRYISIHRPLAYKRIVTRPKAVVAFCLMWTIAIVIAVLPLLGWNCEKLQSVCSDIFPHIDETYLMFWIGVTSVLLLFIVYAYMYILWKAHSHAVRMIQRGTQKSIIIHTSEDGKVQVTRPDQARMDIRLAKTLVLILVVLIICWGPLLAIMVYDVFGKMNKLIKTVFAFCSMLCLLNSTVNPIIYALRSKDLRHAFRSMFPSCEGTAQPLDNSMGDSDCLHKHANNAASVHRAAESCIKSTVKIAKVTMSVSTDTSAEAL

Molecule `CCOc1ccc(/N=C2\SCC(C)(C)CN2C(=O)OC)cc1OCC` came in with a melting point of 75 to 76 °C. Consider `CCOC(=O)N1CC(C)(C)CSC1=Nc1ccccc1C(C)C`, for which the melting point lay within 84 to 86 °C. For the molecule `CSC(=S)N1CC(C)(C)CSC1=Nc1ccccc1C(C)C` [Compound I-5, 2-(2-isopropylphenyl)imino-3-(methylthio)thiocarbonyl-5,5-dimethyl-1,3-thiazine], the melting point lay within 77 to 79 °C. Besides, the IC50 on human CB2R [1] is 6.5 nM. The inhibition constant Ki at human CB2R [2] is 61 nM. Besides, the Ki in data set [3] was over 5 µM. Turning to `CCSC(=O)N1CCSC1=Nc1ccccc1C(C)C` [Compound I-6, 3-(ethylthiocarbonyl)-2-(2-isopropylphenyl)imino-1,3-thiazolidine], the melting point was 79 to 81 °C. Besides, the IC50 on human CB2R [1] (CHO cells expressing human CB2R, 4 μM forskolin, read-out: IC50 (inhibition of forskolin-stimulated cAMP synthesis)) worked out at 2.7 nM. In addition, in data set [4] (dose 40 mg/kg p.o. 1 hr before and 5 hr after induction), the “Inhibition percentage (foot pad swelling, DTH reaction)” value (shortened to “Inhibition percentage”) is 45.2%. The Ki on human CB2R [2] turned out to be 9 nM.

`CCSC(=O)N1CC(C)(C)CSC1=Nc1ccccc1C(C)CC` (stereo not drawn) [Compound I-23] registered an IC50 at human CB2R [1] of 2.6 nM. For the same molecule, the results for the Ki (on human CB2R [2]; in data set [3]) were 29 nM and over 5 µM, respectively. Take `CSC(=O)N1CC(C)(C)CSC1=Nc1ccccc1C(C)C` [Compound I-50]: the figures for the Ki (on human CB2R [2]; in data set [3]) were 39 nM and over 5 µM, respectively. For `CCC(C)c1ccccc1N=C1SCC(C)(C)CN1C(=O)SC` (stereo not drawn) [Compound I-51], the IC50 on human CB2R [1] was 2.8 nM. Further, the Ki at human CB2R [2] is 23 nM. On human CB2R [2], `CSC(=O)N1CC(C)(C)CSC1=Nc1cccc(C(C)C)c1` [Compound I-52] came in with a Ki of 35 nM. For `CCc1ccccc1N=C1SCC(C)(C)CN1C(=S)SC` [Compound I-56], the affinity on human CB2R [2] corresponds to a Ki of 54 nM. Consider `CCC(C)c1ccccc1N=C1SCC(C)(C)CN1C(=S)SC` (stereo not drawn) [Compound I-57], for which the IC50 at human CB2R [1] worked out at 5.5 nM. Further, the results for the Ki (on human CB2R [2]; in data set [3]) were 6 nM and 4.13 µM, respectively.

Regarding `COc1ccccc1N=C1SCC(C)(C)CN1C(=S)SC` [Compound I-60], the “Inhibition percentage” value in data set [4] (setting [5]) stood at 31.1%. The Ki came to 18 nM at human CB2R [2] and 2.1 µM in data set [3].

Regarding `CSC(=S)N1CC(C)(C)CSC1=Nc1ccccc1SC` [Compound I-62], the affinity at human CB2R [2] corresponds to a Ki of 44 nM. With `CSC(=S)N1CC(C)(C)CSC1=Nc1cccc(C(C)C)c1` [Compound I-69], at human CB2R [2], the Ki is 33 nM. Consider `CSC(=S)N1CC(C)(C)CSC1=Nc1ccc(C)c(C)c1` [Compound I-74], for which the Ki at human CB2R [2] is 48 nM. For the molecule `COc1ccc(N=C2SCC(C)(C)CN2C(=S)SC)cc1OC` [Compound I-77], the “Inhibition percentage” value in data set [4] (setting [5]) was 33.8%. Moreover, affinity on human CB2R [2] was put at a Ki of 53 nM. Consider `CCSC(=S)N1CC(C)(C)CSC1=Nc1ccccc1C(C)C` [Compound I-84], for which the inhibition constant (Ki) is 35 nM on human CB2R [2] and over 5 µM in data set [3]. On to `CCSC(=S)N1CC(C)(C)CSC1=Nc1ccccc1C(C)CC` (stereo not drawn) [Compound I-85], for which the Ki at human CB2R [2] is 25 nM.

These data come from patent US6818640B1, “2-imino-1,3-thiazine derivatives” (Shionogi & Co., Ltd., priority 1999, dated 2004).
